One assay has as its system T. rubrum. The assay is described as follows: MIC (broth microdilution). It is filed as cell-based, Trichophyton rubrum. The method, then: (§1) Typically, the in vitro antimicrobial activity of antimicrobial agents is tested using standard NCCLS bacterial inhibition assays, or MIC tests (see, National Committee on Clinical Laboratory Standards “Performance Standards for Antimicrobial Susceptibility Testing,” NCCLS Document M100-S5 Vol. 14, No. 16, December 1994; “Methods for dilution antimicrobial susceptibility test for bacteria that grow aerobically-Third Edition,” Approved Standard M7-A3, National Committee for Clinical Standards, Villanova, Pa.).
(§2) Briefly, ˜1×10^5 cfu/mL bacteria were diluted in TH (S. mutans), or Mueller-Hinton (MH) broth (all other organisms) and distributed to 96-well plates. Serially-diluted (2-fold) peptides were then added and the plates incubated at 37° C. for 18-24 h. […] All experiments were conducted 10 times.
In general terms: Broth dilution looks for growth in wells or tubes with falling amounts of substance.

Assay [1] deals with S. epidermidis. It is filed as cell-based, Staphylococcus epidermidis. As to conditions: S. epidermidis. In a few lines:
(§3)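 Ten repeat experiments used NCCLS dilution susceptibility testing: MH broth, ˜1×10^5 cfu/mL starting density, 2-fold peptide titration, 18-24 h incubation at 37° C.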

Assay [2] relates to C. albicans. The assay is described as follows: MIC (broth microdilution). It is filed as cell-based, Candida albicans. The method, then: as §1, §2
Another assay relates to M. luteus. The assay is described as follows: Kill or inhibit growth/proliferation; morphology, biofilm and growth disruption (Tables 5, 6). It is filed as cell-based, Micrococcus luteus. Also on record: key: A: Peptide aggregates; B: Less hyphal formation; Clumps; Diffuse clumps and small polyps; F: Diffuse growth; H: Thin; I: Growth inhibition; Microcolony formation; Rippled; Small polyps; Thick; W: Halo formation on top, microlonies on bottom.

In assay [3] the test system is S. epidermidis. The assay is described as above. It is filed as cell-based, Staphylococcus epidermidis. Also on record: key: A: Peptide aggregates; B: Less hyphal formation; Clumps; Diffuse clumps and small polyps; F: Diffuse growth; H: Thin; I: Growth inhibition; Microcolony formation; Rippled; Small polyps; Thick; W: Halo formation on top, microlonies on bottom.
In assay [4] the test system is C. albicans. Described as above. It is filed as cell-based, Candida albicans. Also on record: key: A: Peptide aggregates; B: Less hyphal formation; Clumps; Diffuse clumps and small polyps; F: Diffuse growth; H: Thin; I: Growth inhibition; Microcolony formation; Rippled; Small polyps; Thick; W: Halo formation on top, microlonies on bottom.
The test system of assay [5] is microorganisms (e.g., bacteria, yeasts, fungi). The assay is described as follows: Targeting peptide binding to target microorganisms (Table 3). The settings on record: microorganism(s) the targeting peptide binds, preferably 1x PBS.
Another assay deals with microorganisms. Briefly: Peptides having multiple activities (targeting/binding, antimicrobial, growth or phenotype altering). The source says:
In certain embodiments, peptides described herein can have multiple activities. Thus for example, a peptide can have both binding/targeting activity and antimicrobial activity. Such peptides can be used, e.g., in a chimeric construct, for any or all of these properties. Thus, for example, a peptide designated “B” in Table 8 can be used as a targeting peptide. If it is also designated G or M it can also be used for antimicrobial activity.

Another assay deals with C. difficile. Briefly: MIC (broth microdilution). It is filed as cell-based, Clostridium difficile. The method, then: as §1, §2
Another assay has as its system S. pneumoniae. Briefly: Kill or inhibit growth/proliferation; morphology, biofilm and growth disruption (Tables 5, 6). It is filed as cell-based, Streptococcus pneumoniae. Further details: key: A: Peptide aggregates; B: Less hyphal formation; Clumps; Diffuse clumps and small polyps; F: Diffuse growth; H: Thin; I: Growth inhibition; Microcolony formation; Rippled; Small polyps; Thick; W: Halo formation on top, microlonies on bottom.

The subject of assay [6] is B. subtilis. The assay is described as follows: MIC (broth microdilution). It is filed as cell-based, Bacillus subtilis. In a few lines:
as §3

Assay [7] concerns B. subtilis. The assay is described as follows: Kill or inhibit growth/proliferation; morphology, biofilm and growth disruption (Tables 5, 6). It is filed as cell-based, Bacillus subtilis. Further details: key: A: Peptide aggregates; B: Less hyphal formation; Clumps; Diffuse clumps and small polyps; F: Diffuse growth; H: Thin; I: Growth inhibition; Microcolony formation; Rippled; Small polyps; Thick; W: Halo formation on top, microlonies on bottom.

Another assay concerns A. baumannii. Briefly: MIC (broth microdilution). It is filed as cell-based, Acinetobacter baumannii. Here is the method:
as §1, §2

Assay [8] concerns S. mutans. The assay is described as follows: Post-antibiotic effect assay (growth retardation after 10 min exposure). As to conditions: S. mutans monoculture, peptide 10 min, then fresh medium. It is filed as cell-based, Streptococcus mutans. The method, then: The activity and selectivity of MH-STAMPs after a 10 min incubation was determined by growth retardation experiments against targeted and untargeted bacteria in monocultures, as described previously (Id.). Cells from overnight cultures were diluted to ˜5×10^6 cfu/mL in MH (or TH with 1% sucrose for S. mutans), normalized by OD600 0.05-0.1 and seeded to 96-well plates. Cultures were then grown under the appropriate conditions for 2 h (3 h for S. mutans) prior to the addition of peptides for 10 min. Plates were then centrifuged at 3000×g for 5 min, the supernatants discarded, fresh medium returned (MH or TH without sucrose for S. mutans), and incubation resumed. Bacterial growth after treatment was then monitored over time by OD600.

The subject of assay [9] is Mixed planktonic populations of P. aeruginosa, E. coli, S. epidermidis, and S. mutans. The assay is described as follows: Microbial population shift assay. It is filed as cell-based. As to conditions: 10 μM peptide, 24 h. The method, then:
Peptide (10 μM) or mock-treatment (1× PBS) was then added and samples were incubated at 37° C. for 24 h under anaerobic conditions (80% N2, 15% CO2, 5% H2). […] Plates were then incubated 37° C. under aerobic conditions (TH plates were incubated anaerobically) and colonies counted after 24 h to determine survivors. […] Gram stains and direct microscopic observation (from select isolated colonies) were undertaken to confirm species identity (data not shown). The detection limit of the assay was 200 cfu/mL.

The subject of assay [10] is BHK-21 (ATCC CRL-10) fibroblasts. The assay is described as follows: Cytotoxicity, Promega CellTiterGlo assay. It is filed as cell-based, hamster. As to conditions: BHK, at either 5 min or 24 h, with or without light. Here is the method: Streptococcus oralis ATCC 10557, Streptococcus gordonii (Challis), Streptococcus sanguinis (NY101), Streptococcus mitis ATCC 903, Streptococcus salivarius ATCC 13419 and S. mutans wild-type UA140 and JM11 (spectinomycin-resistant) strains were grown in Todd-Hewitt (TH) broth 37° C. in an anaerobic atmosphere of 80% N2, 10% CO2, and 10% H2. BHK-21 (ATCC CRL-10) fibroblasts were propagated in DMEM with 10% FBS, 1 mM sodium pyruvate, 100 units/mL penicillin G, and 100 μg/mL streptomycin at 37° C. with 5% CO2. Cells were detached with 0.25% trypsin and subcultured as recommended by the supplier.
The effect of RB and C16-RB on […] fibroblasts was ascertained by utilizing the Promega CellTiterGlo assay, as described by the manufacturer. Briefly, fibroblasts were grown to confluence, detached, and seeded to ˜5,000 cells per well in a 96-well opaque walled, clear bottom 96-well plate (Nunc International). For long-term dark toxicity, cells were allowed to attach to for 18 h before the culture medium was replaced with medium plus serially-diluted RB or C16-RB (200 μM to 390 nM) or medium alone. After 18-24 h, equal volume Cell Titer Glo reagent was added to each well and mixed. Luciferace activity was then quantified to measure cell viability (Varian Fluorometer in Biolumenescence mode). To measure cytotoxicity after RB or C16-RB light exposure, cells were seeded at ˜10,000 cells per well and allowed to attach for 4 h. Cell growth medium was then replaced with RB or C16-RB containing medium, prior to exposure (a single well at a time) with blue light (400 mW/cm^2) suspended ˜3 cm from the well bottom. After exposure, cultures were disrupted with Cell Titer Glo and luciferase activity quantitated as above.

The subject of assay [11] is S. mutans. The assay is described as follows: Anti-S. mutans STAMP activity in vitro, also in formulations. It is filed as cell-based, Streptococcus mutans.
The mark [12] stands for this setting: binding in aqueous buffers depending on peptide solubility.

pIC50: −log10 of the molar value. “Also recorded” adds a separate entry of the source. Bridge positions count the residues as written; N and C are the ends. Square brackets hold non-standard residues; d marks the D form. Ends that are not written are not given here. Peptide text beside a SMILES is read from it. I, II: the chains in the order shown. Aoc = NCCCCCCCC(=O)O Where only a bound is given, the exact number is not on record here.

For LSLATFAKIFMTRSNWSLKRFNRL [PF-278], the MIC result with T. rubrum is given as “T. rubrum, 50 μM”; with S. epidermidis [1], “S. epidermidis, 50 μM”; with C. albicans [2], “C. albicans, 50 μM”. Also, the “Organism, effect” value is listed as “M. luteus (R)” in the assay on M. luteus, “S. epidermidis (I)” with S. epidermidis [3] and “C. albicans (B)” in the assay on C. albicans [4]. In assay [5] (setting [12]), the “Target(s)” value is listed as “M. luteus; also recorded: A. baumannii”. Further, the Activities entry in the assay with microorganisms was “G B M”.
As to FELVDWLETNLGKILKSKSA-NH2 [PF-522], the MIC entry against C. difficile is on record as “C. difficile, 25 μM”. For the same compound, the “Organism, effect” value in the assay on S. pneumoniae was “S. pneumoniae (H)”. Also, the “Target(s)” value in assay [5] (peptide binding conducted in aqueous buffers varied by peptide solubility) is “S. epidermidis; also recorded: E. coli; also recorded: P. aeruginosa; also recorded: S. pneumoniae; also recorded: E. faecalis”. In the assay with microorganisms, the Activities entry was “G B M”.
Consider “MKRRRCNWCGKLFYLEEKSKEAYCCKECRKKAKKVKK [PF-307]”, for which the MIC result against T. rubrum is on record as “T. rubrum, 50 μM”; in the assay on B. subtilis [6], “B. subtilis, 50 μM”; against C. albicans [2], “C. albicans, 50 μM”. For the same compound, the “Organism, effect” value is “B. subtilis (H)” in the assay with B. subtilis [7], “S. epidermidis (T)” in the assay with S. epidermidis [3] and “C. albicans (B)” in the assay on C. albicans [4]. Further, the “Target(s)” value in assay [5] (setting [12]) is given as “S. epidermidis; also recorded: B. subtilis; also recorded: B. fragilis; also recorded: C. difficile”. Also, in the assay on microorganisms, the Activities entry was “G B M”.
As for KNKKQTDILEKVKEILDKKKKTKSVGQKLY [PF-538], the MIC result in the assay on A. baumannii is listed as “A. baumannii, 25 μM”; against C. difficile, “C. difficile, 25 μM”. In addition, the “Organism, effect” value in the assay with S. pneumoniae is “S. pneumoniae (H)”. Besides, the Activities result in the assay with microorganisms is recorded as “G M”.
As for `CC[C@H](C)[C@H](NC(=O)[C@H](Cc1ccccc1)NC(=O)CCCCCCCNC(=O)[C@H](CCCCNC(=O)CNC(=O)CNC(=O)CNC(=O)[C@H](C)NC(=O)[C@H](CCC(=O)O)NC(=O)[C@H](CC(N)=O)NC(=O)[C@H](C)NC(=O)[C@H](C)NC(=O)[C@@H](N)CC(=O)O)NC(=O)CNC(=O)CNC(=O)CNC(=O)[C@H](CCCNC(=N)N)NC(=O)[C@H](CC(N)=O)NC(=O)[C@H](CC(C)C)NC(=O)[C@H](Cc1ccccc1)NC(=O)[C@H](CCCNC(=N)N)NC(=O)[C@H](Cc1ccccc1)NC(=O)[C@H](Cc1ccccc1)NC(=O)[C@@H](NC(C)=O)[C@@H](C)O)C(=O)N[C@@H](CCCNC(=N)N)C(=O)N[C@@H](CCCCN)C(=O)N[C@@H](Cc1ccccc1)C(=O)N[C@@H](CC(C)C)C(=O)N[C@@H](CCCCN)C(=O)N[C@@H](CCCCN)C(=O)N[C@@H](Cc1c[nH]c2ccccc12)C(=O)N[C@@H](CC(C)C)C(=O)N[C@@H](CC(C)C)C(N)=O` [M8(BL)-20] (I: Ac-TFFRFLNRGGGK[Aoc]FIRKFLKKWLL-NH2 / II: H-DAANEAGGG; amide I:12-II:C), the “bacterial growth (OD600) after treatment” value with S. mutans [8] was “effectively retarded”. Further, the “recoverable (surviving) cfu/mL” value in [9] (E. coli in mixed culture) is listed as “not affected or affected to a lesser extent”; in [9] (P. aeruginosa in mixed culture), “not affected or affected to a lesser extent”; in [9] (S. epidermidis in mixed culture), “not affected or affected to a lesser extent”; in [9] (S. mutans in mixed culture), “greatly reduced compared to input cfu/mL”.
As a reminder, the pIC50 is the IC50 on a negative log10 scale, so that one unit is a factor of ten. The compound Melittin B gave a negative-log IC50 (pIC50) in assay [10] above 5.81.
“TFFRLFNRSFTQALGKGGGKNLRIIRKGIHIIKKY* (not fully specified (C-terminus); printed as TFFRLFNRSFTQALGKGGGKNLRIIRKGIHIIKKY*) [Peptide C16G2]”: in the assay with S. mutans [11] (PBS formulations 0.5× to about 2.5× PBS), the “PBS strength at activity optimum” value is “about 1 × PBS”. Besides, the anti-S. mutans activity result is “active” in the assay with S. mutans [11] (phosphate buffered saline (PBS) formulation); “substantially inactive” in the assay on S. mutans [11] (water-based salt-free buffers and nanoemulsions).
